Molecular target: Recombinant human HSD17B13 (Homo sapiens (Human), UniProt Q7Z5P4)
Test: HSD17B13 rapid-fire mass spectrometry assay (RF/MS assay)
Type: biochemical
Details: inhibition of HSD17B13; LTB4 10 μM, NAD+ 0.5 mM, RT 3 h; IC50 ranges A-E
How it was run: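 Sf9-expressed human HSD17B13 (80 nM) with 10 μM LTB4 and 0.5 mM NAD+, incubated with compound (0–100 μM) for 3 h at RT in Tris pH 7.5/BSA/Tween-20. After formic acid quench, LTB4 conversion to 12-oxo-LTB4 measured by RapidFire MS/MS. IC50 from normalised residual activity, duplicates.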

Recombinant human HSD17B13, sequence (Q7Z5P4 20-300): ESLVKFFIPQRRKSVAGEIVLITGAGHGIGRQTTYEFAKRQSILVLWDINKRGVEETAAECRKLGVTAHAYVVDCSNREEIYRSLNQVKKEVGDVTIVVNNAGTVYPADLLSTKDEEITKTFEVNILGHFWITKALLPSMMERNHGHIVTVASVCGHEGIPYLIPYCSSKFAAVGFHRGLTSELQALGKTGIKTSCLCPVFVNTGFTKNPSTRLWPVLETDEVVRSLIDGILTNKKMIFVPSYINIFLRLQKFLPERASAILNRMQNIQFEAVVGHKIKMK

| SMILES | IC50 |
| --- | --- |
| COc1cc(C(=O)O)c(F)cc1NS(=O)(=O)c1coc(-c2ccc(C3CCC(C)(C)CC3)cc2)n1 [Example 496] | < 0.1 µM |
| COc1cc(C(=O)O)c(F)cc1NS(=O)(=O)c1coc(-c2ccc(C3CCCCC3)cc2)n1 [Example 497] | 0.1 to 0.5 µM |
| COc1cc(C(=O)O)c(F)cc1NS(=O)(=O)c1cccc(-c2ccc(C3=CCC(C(C)(C)C)CC3)cc2)c1F (stereo not shown) [Example 498] | < 0.1 µM |
| COc1cc(C(=O)O)c(F)cc1NS(=O)(=O)c1cccc(-c2ccc(C3=CC[C@H](C(C)(C)C)CC3)cc2)c1F [Example 499] | < 0.1 µM |
| COc1cc(C(=O)O)c(F)cc1NS(=O)(=O)c1cccc(-c2ccc([C@H]3CC[C@@H](C(C)(C)C)CC3)cc2)c1F [Example 500] | < 0.1 µM |
| CC[C@H]1CC[C@H](c2ccc(-c3cccc(S(=O)(=O)Nc4cc(F)c(C(=O)O)cc4OC)c3F)cc2)CC1 [Example 501] | < 0.1 µM |
| COc1cc(C(=O)O)ccc1NS(=O)(=O)c1csc(-c2ccc(C3CCC(OC)CC3)cc2)n1 (stereo not shown) [Example 503] | 0.1 to 0.5 µM |
| CCC[C@H]1CC[C@H](C2CCC(c3nc(S(=O)(=O)Nc4ccc(C(=O)O)cc4OC)cs3)CC2)CC1 (stereo partly shown) [Example 504] | 0.1 to 0.5 µM |
| COc1c(NS(=O)(=O)c2csc(-c3ccc(C4CCC(C)(C)CC4)cc3)n2)ccc(C(=O)O)c1F [Example 505] | 0.1 to 0.5 µM |
| COc1cc(C(=O)O)ccc1NS(=O)(=O)c1csc(-c2ccc([C@H]3CC[C@H](C(F)(F)F)CC3)cc2)n1 [Example 506] | < 0.1 µM |
| COc1cc(C(=O)O)ccc1NS(=O)(=O)c1csc(-c2ccc(C34CC5CC(CC(C5)C3)C4)cc2)n1 [Example 507] | 0.1 to 0.5 µM |
| CCCCC[C@H]1CC[C@H](c2ccc(-c3nc(S(=O)(=O)Nc4ccc(C(=O)O)cc4OC)cs3)cc2)CC1 [Example 508] | < 0.1 µM |
| COc1cc(C(=O)O)c(F)cc1NS(=O)(=O)c1csc(-c2ccc([C@H]3CC[C@H](C(F)(F)F)CC3)cc2)n1 [Example 509] | < 0.1 µM |
| COc1cc(C(=O)O)c(F)cc1NS(=O)(=O)c1csc(-c2ccc(C3=CCC(C)(C)CC3)cc2F)n1 [Example 510] | < 0.1 µM |
| COc1cc(C(=O)O)c(F)cc1NS(=O)(=O)c1csc(-c2ccc(C3CCC(C)(C)CC3)cc2F)n1 [Example 511] | < 0.1 µM |
| COc1cc(C(=O)O)c(F)cc1NS(=O)(=O)c1csc(-c2ccc(C3=CCC(C)(C)CC3)c(F)c2)n1 [Example 512] | < 0.1 µM |
| COc1cc(C(=O)O)c(F)cc1NS(=O)(=O)c1csc(-c2ccc(C3CCC(C)(C)CC3)c(F)c2)n1 [Example 513] | < 0.1 µM |
| COc1cc(C(=O)O)c(F)cc1NS(=O)(=O)c1csc(C#CC2CCC(C)(C)CC2)n1 [Example 514] | < 0.1 µM |
| COc1cc(C(=O)O)c(F)cc1NS(=O)(=O)c1csc(-c2ccc(C3=CCC(C)(C)CC3)c(C(F)(F)F)c2)n1 [Example 515] | < 0.1 µM |
| COc1cc(C(=O)O)c(F)cc1NS(=O)(=O)c1csc(-c2cc(F)c(C3=CCC(C)(C)CC3)c(F)c2)n1 [Example 516] | 0.1 to 0.5 µM |
| COc1cc(C(=O)O)c(F)cc1NS(=O)(=O)c1csc(-c2cc(F)c(C3CCC(C)(C)CC3)c(F)c2)n1 [Example 517] | 0.1 to 0.5 µM |
| COc1cc(C(=O)O)c(F)cc1NS(=O)(=O)c1csc(-c2cc(F)c(C3=CCC(C)(C)CC3)cc2F)n1 [Example 518] | 0.1 to 0.5 µM |

| SMILES | IC50 |
| --- | --- |
| COc1cc(C(=O)O)c(F)cc1NS(=O)(=O)c1csc(-c2cc(F)c(C3CCC(C)(C)CC3)cc2F)n1 [Example 519] | 0.1 to 0.5 µM |
| COc1cc(C(=O)O)c(F)cc1NS(=O)(=O)c1csc(-c2ccc(C3=CCC(C)(C)CC3)c(F)c2F)n1 [Example 520] | 0.1 to 0.5 µM |
| COc1cc(C(=O)O)c(F)cc1NS(=O)(=O)c1csc(-c2ccc(C3CCC(C)(C)CC3)c(F)c2F)n1 [Example 521] | 0.1 to 0.5 µM |
| COc1cc(C(=O)O)c(F)cc1NS(=O)(=O)c1csc(-c2ccc(C3=CCC(C)(C)CC3)cc2C(F)(F)F)n1 [Example 522] | < 0.1 µM |
| COc1cc(C(=O)O)c(F)cc1NS(=O)(=O)c1csc(-c2ccc(C3=CCC(C)(C)CC3)c(OC)c2)n1 [Example 523] | < 0.1 µM |
| COc1cc(C(=O)O)c(F)cc1NS(=O)(=O)c1csc(-c2ccc(C3CCC(C)(C)CC3)cc2C(F)(F)F)n1 [Example 524, 4-((2-(4-(4,4-dimethylcyclohexyl)-2-(trifluoromethyl)phenyl)thiazole)-4-sulfonamido)-2-fluoro-5-methoxybenzoic acid] | < 0.1 µM |
| COc1cc(C(=O)O)c(F)cc1NS(=O)(=O)c1csc(-c2ccc(C3CCC(C)(C)CC3)c(OC)c2)n1 [Example 525] | 0.5 to 1 µM |
| COc1cc(C(=O)O)c(F)cc1NS(=O)(=O)c1csc(-c2ccc(-c3cccnc3)cc2)n1 [Example 526] | 0.1 to 0.5 µM |
| COc1cc(C(=O)O)c(F)cc1NS(=O)(=O)c1csc(-c2ccc(C3=CCC(C)(C)CC3)c(C)c2)n1 [Example 527] | 0.1 to 0.5 µM |
| COc1cc(C(=O)O)c(F)cc1NS(=O)(=O)c1csc(-c2ccc(C3CCC(C)(C)CC3)c(C)c2)n1 [Example 528] | 0.1 to 0.5 µM |
| COc1cc(C(=O)O)c(F)cc1NS(=O)(=O)c1csc(-c2ccc(C3=CCC(C)(C)CC3)c(CO)c2)n1 [Example 529] | 0.1 to 0.5 µM |
| COc1cc(C(=O)O)c(F)cc1NS(=O)(=O)c1csc(-c2ccc(C3=CCC(C)(C)CC3)c(C(N)=O)c2)n1 [Example 530] | 0.5 to 1 µM |
| COc1cc(C(=O)O)c(F)cc1NS(=O)(=O)c1csc(-c2ccc(-c3ccccc3O)cc2)n1 [Example 531] | 0.1 to 0.5 µM |
| COc1cc(C(=O)O)c(F)cc1NS(=O)(=O)c1csc(-c2ccc([C@]3(CO)CC[C@@H](C(F)(F)F)CC3)cc2)n1 [Example 532] | 0.5 to 1 µM |
| COc1cc(C(=O)O)c(F)cc1NS(=O)(=O)c1csc(-c2ccc(C3CCC(C)(C)CC3)c(C(N)=O)c2)n1 [Example 533] | 0.5 to 1 µM |
| COc1cc(C(=O)O)c(F)cc1NS(=O)(=O)c1csc(-c2ccc(C3CC4CCC(C4)C3)cc2)n1 (stereo not shown) [Example 534] | 0.1 to 0.5 µM |
| COc1cc(C(=O)O)c(F)cc1NS(=O)(=O)c1csc(-c2ccc(C3CC4C(C3)C4(C)C)cc2)n1 (stereo not shown) [Example 535] | < 0.1 µM |
| COc1cc(C(=O)O)c(F)cc1NS(=O)(=O)c1csc(-c2ccc(C3=CCC(C)(C)CC3)cc2OC)n1 [Example 536] | < 0.1 µM |
| COc1cc(C(=O)O)c(F)cc1NS(=O)(=O)c1csc(-c2ccc(C3=CCC(C)(C)CC3)c(OC(F)(F)F)c2)n1 [Example 537] | < 0.1 µM |
| COc1cc(C(=O)O)c(F)cc1NS(=O)(=O)c1csc(-c2ccc(C3=CCC(C)(C)CC3)c3[nH]ncc23)n1 [Example 538] | 0.1 to 0.5 µM |
| COc1cc(C(=O)O)c(F)cc1NS(=O)(=O)c1csc(-c2ccc(C3CCC(C)(C)CC3)cc2OC)n1 [Example 539] | < 0.1 µM |
| COc1cc(C(=O)O)c(F)cc1NS(=O)(=O)c1csc(-c2ccc(C3CCC(C)(C)CC3)c(OC(F)(F)F)c2)n1 [Example 540] | 0.1 to 0.5 µM |

| SMILES | IC50 |
| --- | --- |
| COc1cc(C(=O)O)c(F)cc1NS(=O)(=O)c1csc(-c2ccc(C3CCC(C)(C)CC3)c3[nH]ncc23)n1 [Example 541] | < 0.1 µM |
| COc1cc(C(=O)O)c(F)cc1NS(=O)(=O)c1csc(-c2ccc(C3=CCC(C)(C)CC3)cc2OC(F)(F)F)n1 [Example 542] | < 0.1 µM |
| COc1cc(C(=O)O)c(F)cc1NS(=O)(=O)c1csc(-c2ccc(C3CCC(C)(C)CC3)cc2OC(F)(F)F)n1 [Example 543] | < 0.1 µM |
| COc1cc(C(=O)O)c(F)cc1NS(=O)(=O)c1csc(-c2ccc(C3=CCC(C)(C)CC3)cc2C2CC2)n1 [Example 544] | 0.1 to 0.5 µM |
| COc1cc(C(=O)O)c(F)cc1NS(=O)(=O)c1csc(-c2ccc(C3=CCC(C)(C)CC3)c(OC)c2F)n1 [Example 545] | < 0.1 µM |
| COc1cc(C(=O)O)c(F)cc1NS(=O)(=O)c1csc(-c2ccc(C3=CCC(C)(C)CC3)c(F)c2OC)n1 [Example 546] | < 0.1 µM |
| COc1cc(C(=O)O)c(F)cc1NS(=O)(=O)c1csc(-c2ccc(C3CCC(C)(C)CC3)cc2C2CC2)n1 [Example 547] | 0.1 to 0.5 µM |
| COc1cc(C(=O)O)c(F)cc1NS(=O)(=O)c1csc(-c2ccc(C3CCC(C)(C)CC3)c(OC)c2F)n1 [Example 548] | < 0.1 µM |
| COc1cc(C(=O)O)c(F)cc1NS(=O)(=O)c1csc(-c2ccc(C3CCC(C)(C)CC3)c(F)c2OC)n1 [Example 549] | 0.1 to 0.5 µM |
| COc1cc(C(=O)O)c(F)cc1NS(=O)(=O)c1csc(-c2ccc(C3CC4CCC3CC4)cc2)n1 (stereo not shown) [Example 550] | 0.1 to 0.5 µM |
| COc1cc(C(=O)O)c(F)cc1NS(=O)(=O)c1csc(-c2ccc(C3=CCC(C)(C)CC3)nc2)n1 [Example 551] | 0.1 to 0.5 µM |
| COc1cc(C(=O)O)c(F)cc1NS(=O)(=O)c1csc(-c2cnc(C3=CCC(C)(C)CC3)c(F)c2)n1 [Example 552] | 0.1 to 0.5 µM |
| COc1cc(C(=O)O)c(F)cc1NS(=O)(=O)c1csc(-c2ccc(C3CCC(C)(C)CC3)nc2)n1 [Example 553] | 0.1 to 0.5 µM |
| COc1cc(C(=O)O)c(F)cc1NS(=O)(=O)c1csc(-c2cnc(C3CCC(C)(C)CC3)c(F)c2)n1 [Example 554] | 0.1 to 0.5 µM |
| COc1cc(C(=O)O)c(F)cc1NS(=O)(=O)c1csc(-c2ccc(C3=CCC(C)(C)CC3)cc2-c2ccc(F)cc2)n1 [Example 555] | 0.5 to 1 µM |
| COc1cc(C(=O)O)c(F)cc1NS(=O)(=O)c1csc(-c2ccc(C3=CCC(C)(C)CC3)cc2C)n1 [Example 556] | < 0.1 µM |
| COc1cc(C(=O)O)c(F)cc1NS(=O)(=O)c1csc(-c2ccc(C3=CCC(C)(C)CC3)cc2C(C)C)n1 [Example 557] | 0.1 to 0.5 µM |
| COc1cc(C(=O)O)c(F)cc1NS(=O)(=O)c1csc(-c2ccc(C3CCC(C)(C)CC3)cc2-c2ccc(F)cc2)n1 [Example 558] | 0.1 to 0.5 µM |
| COc1cc(C(=O)O)c(F)cc1NS(=O)(=O)c1csc(-c2ccc(C3CCC(C)(C)CC3)cc2C)n1 [Example 559] | < 0.1 µM |
| COc1cc(C(=O)O)c(F)cc1NS(=O)(=O)c1csc(-c2ccc(C3CCC(C)(C)CC3)cc2C(C)C)n1 [Example 560] | 0.1 to 0.5 µM |

From US12384753B2, “17-beta-hydroxysteroid dehydrogenase type 13 inhibitors and methods of use thereof” (Enanta Pharmaceuticals, Inc., priority 2021, dated 2025)
